Laboratory results: article PMC8331687 (ACS chemical biology, 2020)

Molecular target: T1, ObiH (Pseudomonas fluorescens, UniProt A0A1X9LWZ7)
T1 sequence (A0A1X9LWZ7 1-440): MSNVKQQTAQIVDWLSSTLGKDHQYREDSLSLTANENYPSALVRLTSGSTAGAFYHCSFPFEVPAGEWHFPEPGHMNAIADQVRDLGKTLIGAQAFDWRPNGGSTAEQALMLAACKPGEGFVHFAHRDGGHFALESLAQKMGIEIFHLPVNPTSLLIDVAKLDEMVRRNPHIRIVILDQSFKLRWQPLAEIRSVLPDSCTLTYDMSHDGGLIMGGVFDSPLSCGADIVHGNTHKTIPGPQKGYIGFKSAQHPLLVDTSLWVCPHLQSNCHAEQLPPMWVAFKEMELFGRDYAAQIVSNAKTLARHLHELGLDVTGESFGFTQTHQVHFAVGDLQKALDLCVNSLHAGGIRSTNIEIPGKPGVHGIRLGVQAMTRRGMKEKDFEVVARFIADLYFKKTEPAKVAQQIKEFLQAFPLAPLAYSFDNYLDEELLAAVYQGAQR
Assay: UV-vis titration of quinonoid at […] nm
Type: binding

Q: With `CC=O` [acetaldehyde] as the compound, how does the Kd read?
A: The Kd was 430 ± 15 µM.
